This passage reports CMC and γcmc results from patent US20070243321A1, “Aqueous Bitumen Emulsion” (Eiffage Travaux Publics, priority 2004, published 2007).

The nature of the data set: Measurement of surface tension and critical micellar concentrations (rising drop tensiometer). The format is physicochemical. Conditions: for CMC: critical micellar concentration; for γcmc: surface tension at the CMC, rising drop. As for the experimental part:
Measurement of Surface Tension and Critical Micellar Concentrations The tensiometric measurements were carried out with a drop tensiometer operating by the method of the rising drop ([…] tensiometer, I.T. CONCEPT).

With `CCCCCCCCCCCCOS(=O)(=O)[O-].[Na+]` [SDS (C12), reference compound], the CMC is 8000 µM and the γcmc is given as 30.0 mN/m.
The like results for “betainylaminooctadecane mesylate [Amides C18:0]” were, in that order, 140 µM and 36.0 mN/m.
The like results for “octadecyl betaine mesylate [Esters C18:0]” were, in that order, 800 µM and 37.2 mN/m.
